According to ChEMBL document CHEMBL1201862, “PubChem BioAssay data set” (2004):
The source made the active and inactive calls.

Columns and labels:
Paired box protein Pax-8 = Paired box protein Pax-8 (Homo sapiens, UniProt Q06710); assay: inhibitors of PAX8-driven TPO luciferase reporter, dose response, RMG-I cells, cherry-pick (AID 687027); format: functional, cell-based;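 also: luciferase reporter driven by Pax8 target thyroperoxidase promoter measured by SteadyGlo luminescence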
[1] = cytotoxicity dependent on PAX8, dose response, cell-based, plate reader, dry powder (AID 743049); format: functional
[2] = PAX2 cell-based inhibition, dose response, selectivity assay for PAX8 inhibitor project, plate reader, dry powder samples (AID 743048); format: functional;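 also: HEK293 cells carrying a WT1 promoter luciferase reporter driven by expressed Pax2; potency is for inhibition of Pax2 driven reporter signal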
[3] = biological target: Potassium channel subfamily K member 3 (Rattus norvegicus, UniProt O54912); assay: SAR analysis for the identification of selective inhibitors of the two-pore domain potassium channel TASK1(KCNK3):Automated Electrophysiology.; format: functional
[4] = biological target: Potassium channel subfamily K member 3 (Homo sapiens, UniProt O14649); assay: TASK1 (KCNK3) potassium channel inhibitors, SAR follow-up, CHO cells, FluxOR thallium flux (AID 652212); format: functional
[5] = biological target: T1, Beta-2 adrenergic receptor (Homo sapiens, UniProt P07550); assay: beta2AR agonists driving receptor internalization, dose response, cell-based, FAP fluorogen, flow cytometry, cherry pick 1 (AID 588763); format: functional
[6] = biological target: T1, Beta-2 adrenergic receptor; assay: Dose response for HTS for Beta-2AR agonists via FAP method from Powderset3.; format: functional
Protein Wnt-3a = Protein Wnt-3a (Mus musculus, UniProt P27467); assay: SAR analysis of small molecule antagonists of Gli-SUFU in a Wnt3a luminescent reporter assay.; format: functional
[7] = biological target: T2, Heat shock factor protein 1 (Mus musculus, UniProt P38532); assay: HSF1 potentiators in luciferase reporter cells, confirmation, cell-based, NIH3T3, luminescence, dose retest (AID 435004); format: functional;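 also: stress induced by proteasome inhibitor MG132 added 30 min after compound; luciferase reporter driven by HSF1 response element in NIH3T3 cells; actives raise luminescence as potentiators of the MG132 stress response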
T2 sequence (P38532 whole entry): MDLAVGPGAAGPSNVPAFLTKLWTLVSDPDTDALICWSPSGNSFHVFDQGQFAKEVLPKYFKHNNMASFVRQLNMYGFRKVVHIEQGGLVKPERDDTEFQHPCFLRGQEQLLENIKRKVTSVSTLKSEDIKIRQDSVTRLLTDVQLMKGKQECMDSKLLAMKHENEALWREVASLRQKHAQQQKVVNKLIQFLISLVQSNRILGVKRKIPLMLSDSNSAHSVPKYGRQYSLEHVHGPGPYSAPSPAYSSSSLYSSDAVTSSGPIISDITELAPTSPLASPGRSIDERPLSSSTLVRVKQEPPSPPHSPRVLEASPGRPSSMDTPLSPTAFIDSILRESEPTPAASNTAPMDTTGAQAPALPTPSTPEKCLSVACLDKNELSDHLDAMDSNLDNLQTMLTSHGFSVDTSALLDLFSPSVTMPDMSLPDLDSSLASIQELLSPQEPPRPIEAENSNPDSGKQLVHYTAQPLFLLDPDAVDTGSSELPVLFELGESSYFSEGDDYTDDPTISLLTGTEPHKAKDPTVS

[8] = biological target: Mitogen-activated protein kinase 10 (Homo sapiens, UniProt P53779); assay: Dose response biochemical screening assay for inhibitors of c-Jun N-Terminal Kinase 3 (JNK3). [Related pubchem assays: 746 ]
Major prion protein = Major prion protein (Homo sapiens, UniProt P04156); format: functional, cell-based
[9] = Counterscreen for activators of the function of SWI/SNF related, matrix associated, actin dependent regulator of chromatin, subfamily a, member 2 (SMARCA2, BRM): Luminescence-based cell-based high throughput dose response assay to identify non-selective compounds using the VP16 reporter assay.; format: functional
[10] = biological target: SWI/SNF-related matrix-associated actin-dependent regulator of chromatin subfamily A member 2 (Homo sapiens, UniProt P51531); assay: Luminescence-based cell-based high throughput dose response assay to identify activators of the function of SWI/SNF related, matrix associated, actin dependent regulator of chromatin, subfamily a, member 2 (SMARCA2, BRM).; format: functional
[11] = biological target: Potassium channel subfamily K member 9 (Homo sapiens, UniProt Q9NPC2); assay: TASK3 (KCNK9) channel inhibitors, thallium flux, SAR follow-up, selectivity assay for TASK1 inhibitor project, cell-based, FluxOR thallium flux, concentration-response (AID 652211); format: functional;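 also: potency is for inhibitors of the channel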
[12] = biological target: Metabotropic glutamate receptor 3 (Rattus norvegicus, UniProt P31422); assay: mGlu3 NAM potency via calcium readout, dose response, mGlu3 NAM project, TREx293 cells, Galpha15, calcium flux (AID 651840); format: functional
[13] = biological target: Endoplasmic reticulum aminopeptidase 1 (Homo sapiens, UniProt Q9NZ08); assay: ERAP1 aminopeptidase inhibitors, dose response, biochemical, cherry-pick, set 2, plate reader (AID 743314)
[14] = HepG2 cell cytotoxicity, dose response, cytotoxicity control, cherry-picks, set 5 (AID 1053118); format: functional, cell-based
[15] = inhibitors of fibronectin matrix deposition, dose response, AH1F cells, Alexa488-FN fluorescence, cherry-picks (AID 1035475); format: functional, cell-based
[16] = HEK293 cell cytotoxicity, dose response, cytotoxicity control, cherry-picks, set 5 (AID 1053117); format: functional, cell-based
[17] = A549 cell cytotoxicity, dose response, cytotoxicity control, cherry-picks, 26 µM top dose (AID 1053119); format: functional, cell-based

For `C[C@H](CO)N1C[C@H](C)[C@@H](CN(C)Cc2ccc(-c3ccccc3)cc2)Oc2ccc(NC(=O)C3CC3)cc2CC1=O`, the AC50 (Paired box protein Pax-8) was 26.1 µM (active), the AC50 [1] was > 70 µM (inactive) and the AC50 [2] was > 70 µM (inactive).
For `CCOc1ccccc1NC(=O)c1cccc(NC(=O)c2ccc(Cl)cc2)c1`, the IC50 [3] was 7.24 µM (active) and the IC50 [4] was 139 nM (active).
In the case of `COc1ccc(OC)c(CCNC(=O)C2CCN(c3nnc(-n4cccc4)s3)CC2)c1`, the EC50 [5] is reported as 2.85 µM (active) and the EC50 [6] is reported as 1.51 µM (active).
With `COc1cc(OC)cc(C(=O)Nc2cc(Nc3cccc(Cl)c3)ncn2)c1` the IC50 (Protein Wnt-3a) was > 21.8 µM (inactive).
In the case of `CCCc1nc(SCC(=O)Nc2cc(C)on2)c2ccccc2n1`, the EC50 [7] is reported as 31.6 µM (active), the IC50 [8] is reported as 83.5 µM (not active) and the IC50 (Major prion protein) is reported as 1.01 µM (active). The IC50 (cells) was > 138 µM (inactive).
With `N#Cc1c(NCCN)nc(-c2ccco2)c2c1CCCC2` the EC50 [9] was > 91.2 µM (inactive) and the EC50 [10] was 10.8 µM (inactive).
With `CCOc1ccccc1NC(=O)c1cccc(NC(=O)c2ccccc2C)c1` the IC50 [11] was 4.29 µM (active) and the IC50 [4] was 140 nM (active).
`COc1ccc(C#Cc2ccc(C(=O)N3CC4CCC(O)C4C3)cc2)cc1` (configuration not stated) showed an IC50 [12] of 3.5 µM.
In the case of `C[C@H](CO)N1C[C@H](C)[C@H](CN(C)Cc2ccc(C(=O)O)cc2)Oc2ccc(NC(=O)Nc3cccc4ccccc34)cc2CC1=O`, the AC50 [13] is reported as 21.1 µM (active).
With `COc1ccc(S(=O)(=O)N2CCCCC2c2cc(C(=O)Nc3ccc4c(c3)OCO4)no2)cc1` (configuration not stated) the AC50 [14] was 15.4 µM (active), the AC50 [15] was 32.6 µM (active) and the AC50 [16] was 11.4 µM (active). The AC50 [17] was 23.9 µM (active).
